Test results from patent US20210395239A1 (Hoffmann-La Roche Inc., priority 2018, published 2021).

Legend:
hERG channel = biological target: T1, hERG channel (Homo sapiens, UniProt Q12809); assay: hERG channel inhibition assay (patch-clamp, CHOhERG cells); assay type: cell-based; details: for IC20: human, CHO cells stably expressing hERG (CHOhERG); for IC20 / IC50: patch-clamp, CHOhERG cells; for hERG IC20/TLR7 IC50 / hERG IC20/TLR8 IC50 / hERG IC20/TLR9 IC50: safety ratio
T1 construct: expressed in transfected cells; host or cells: CHO (Chinese hamster ovary)
In short: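 Whole-cell voltage-clamp recordings used CHO cells stably expressing human hERG, with IKhERG evoked by a voltage protocol at 0.1 Hz. Increasing compound concentrations were applied, each for 3–10 min to reach steady state, and current amplitude and kinetics were expressed relative to control (100%).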

CYP2C9 = biological target: T2, CYP2C9 (Homo sapiens, UniProt P11712); assay: CYP inhibition assay in human liver microsome, CYP2C9; assay type: in vitro ADME; details: human, human liver microsomes, probe diclofenac 5 μM, substrate diclofenac 5 μM, first value of 2C9/2D6/3A4
T2 construct: tissue BD-Gentest 452117; host or cells: human liver microsomes
In short: (§1)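 Pooled human liver microsomes with a substrate for each CYP were incubated with compound at 37 °C after NADPH addition, for 5 min (CYP2D6: 10 min), then quenched with acetonitrile containing labelled metabolite standards. Metabolite/internal-standard peak area ratios were measured by RapidFire MS/MS. % inhibition was scaled between DMSO and standard-inhibitor controls.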

CYP2D6 = biological target: T3, CYP2D6 (Homo sapiens, UniProt P10635); assay: CYP inhibition assay in human liver microsome, CYP2D6; assay type: in vitro ADME; details: human, human liver microsomes, probe dextromethorphan 5 μM, substrate dextromethorphan 5 μM, second value of 2C9/2D6/3A4
T3 construct: tissue BD-Gentest 452117; host or cells: human liver microsomes
In short: as §1

T2 sequence (P11712 whole entry): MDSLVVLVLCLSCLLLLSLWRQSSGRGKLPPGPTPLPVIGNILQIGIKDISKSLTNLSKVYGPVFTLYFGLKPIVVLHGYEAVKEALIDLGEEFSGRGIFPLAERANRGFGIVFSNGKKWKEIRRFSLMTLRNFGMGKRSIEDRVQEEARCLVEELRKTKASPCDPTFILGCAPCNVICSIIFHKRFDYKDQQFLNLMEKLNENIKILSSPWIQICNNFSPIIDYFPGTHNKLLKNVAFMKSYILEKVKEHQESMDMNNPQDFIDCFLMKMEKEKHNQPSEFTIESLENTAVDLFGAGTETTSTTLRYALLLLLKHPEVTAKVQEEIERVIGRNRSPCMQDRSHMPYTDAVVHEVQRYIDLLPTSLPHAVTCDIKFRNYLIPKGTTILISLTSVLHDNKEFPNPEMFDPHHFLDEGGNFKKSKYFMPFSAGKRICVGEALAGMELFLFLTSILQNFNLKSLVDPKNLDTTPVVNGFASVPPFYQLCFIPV
T1 sequence (Q12809 whole entry): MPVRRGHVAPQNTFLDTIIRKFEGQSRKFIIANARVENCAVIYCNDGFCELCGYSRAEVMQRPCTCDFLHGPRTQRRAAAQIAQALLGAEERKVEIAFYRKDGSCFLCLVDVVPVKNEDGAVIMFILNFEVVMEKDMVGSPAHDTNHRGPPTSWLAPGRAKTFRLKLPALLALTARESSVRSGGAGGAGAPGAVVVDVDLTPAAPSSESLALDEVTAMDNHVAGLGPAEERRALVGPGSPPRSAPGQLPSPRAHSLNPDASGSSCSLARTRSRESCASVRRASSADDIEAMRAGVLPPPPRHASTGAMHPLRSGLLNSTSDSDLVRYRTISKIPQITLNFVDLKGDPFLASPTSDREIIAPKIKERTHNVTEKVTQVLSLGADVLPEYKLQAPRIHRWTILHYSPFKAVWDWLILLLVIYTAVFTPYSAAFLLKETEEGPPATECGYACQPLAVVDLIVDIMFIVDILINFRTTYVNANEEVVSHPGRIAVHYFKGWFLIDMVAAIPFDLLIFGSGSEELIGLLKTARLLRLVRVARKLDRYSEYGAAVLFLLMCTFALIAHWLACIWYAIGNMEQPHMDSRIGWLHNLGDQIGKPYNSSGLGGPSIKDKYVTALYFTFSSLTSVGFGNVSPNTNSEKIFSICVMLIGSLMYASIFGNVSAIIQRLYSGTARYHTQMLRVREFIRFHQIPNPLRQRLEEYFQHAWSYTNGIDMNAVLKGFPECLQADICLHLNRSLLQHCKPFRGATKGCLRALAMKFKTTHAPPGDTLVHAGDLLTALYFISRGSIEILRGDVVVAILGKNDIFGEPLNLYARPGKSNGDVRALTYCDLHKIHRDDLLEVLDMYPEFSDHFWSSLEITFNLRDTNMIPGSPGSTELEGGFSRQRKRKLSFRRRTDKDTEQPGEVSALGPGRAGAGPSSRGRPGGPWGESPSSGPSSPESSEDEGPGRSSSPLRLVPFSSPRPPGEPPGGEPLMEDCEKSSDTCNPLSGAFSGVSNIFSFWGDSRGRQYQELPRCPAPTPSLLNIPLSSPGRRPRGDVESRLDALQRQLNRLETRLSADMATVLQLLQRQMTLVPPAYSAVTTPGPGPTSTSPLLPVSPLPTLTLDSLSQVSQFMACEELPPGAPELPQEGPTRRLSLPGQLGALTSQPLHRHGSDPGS
T3 sequence (P10635 whole entry): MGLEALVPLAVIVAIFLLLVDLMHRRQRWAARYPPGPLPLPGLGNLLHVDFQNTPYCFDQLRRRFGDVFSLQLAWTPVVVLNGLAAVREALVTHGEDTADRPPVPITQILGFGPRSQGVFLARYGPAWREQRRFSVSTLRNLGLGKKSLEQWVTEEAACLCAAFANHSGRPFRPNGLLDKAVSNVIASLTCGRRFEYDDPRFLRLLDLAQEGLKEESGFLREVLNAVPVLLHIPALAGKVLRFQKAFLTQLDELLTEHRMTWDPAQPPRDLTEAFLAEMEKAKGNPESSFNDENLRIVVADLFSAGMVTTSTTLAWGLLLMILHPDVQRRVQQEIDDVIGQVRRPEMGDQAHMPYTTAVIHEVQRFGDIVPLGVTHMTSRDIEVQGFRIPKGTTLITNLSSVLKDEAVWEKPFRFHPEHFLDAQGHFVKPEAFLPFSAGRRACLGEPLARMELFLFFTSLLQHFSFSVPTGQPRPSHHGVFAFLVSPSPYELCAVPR

## C[C@@H]1CN(c2ccc(C#N)n3ncc(F)c23)C[C@H](CN2CCN(c3ccc(N[C@H]4CNC[C@H]4F)nc3)CC2)O1 [Example 167, 3-fluoro-4-[(2S,6R)-2-[[4-[6-[[(3S,4R)-4-fluoropyrrolidin-3-yl]amino]-3-pyridyl]piperazin-1-yl]methyl]-6-methyl-morpholin-4-yl]pyrazolo[1,5-a]pyridine-7-carbonitrile]
hERG channel
  IC20: > 10 µM
  IC50: > 20 µM
  hERG IC20/TLR7 IC50: >714
  hERG IC20/TLR8 IC50: >294
  hERG IC20/TLR9 IC50: >217
CYP2C9
  inhibition at 5 min, 10 µM: -1%
CYP2D6
  inhibition at 10 min, 10 µM: 11.5%

## C[C@@H]1CN(c2ccc(C#N)n3ncc(F)c23)C[C@H](CN2CCN(c3ccc(N4C[C@H]5NCCO[C@@H]5C4)nc3)CC2)O1 [Example 168, 4-[(2S,6R)-2-[[4-[6-[(4aR,7aR)-3,4,4a,5,7,7a-hexahydro-2H-pyrrolo[3,4-b][1,4]oxazin-6-yl]-3-pyridyl]piperazin-1-yl]methyl]-6-methyl-morpholin-4-yl]-3-fluoro-pyrazolo[1,5-a]pyridine-7-carbonitrile]
hERG channel
  IC20: 8.6 µM
  IC50: > 20 µM
  hERG IC20/TLR7 IC50: 430
  hERG IC20/TLR8 IC50: 150
  hERG IC20/TLR9 IC50: 74
CYP2C9
  inhibition at 5 min, 10 µM: -8%
CYP2D6
  inhibition at 10 min, 10 µM: 1.5%

## C[C@@H]1CN(c2ccc(C#N)c3ncccc23)C[C@H](CN2CCN(c3ccnc(N4CCNCC4)n3)CC2)O1 [Example 15, 5-[(2R,6S)-2-methyl-6-[[4-(2-piperazin-1-ylpyrimidin-4-yl)piperazin-1-yl]methyl]morpholin-4-yl]quinoline-8-carbonitrile]
hERG channel
  IC20: > 10 µM
  IC50: > 20 µM
  hERG IC20/TLR7 IC50: >1429
  hERG IC20/TLR8 IC50: >3333
  hERG IC20/TLR9 IC50: >278
CYP2C9
  inhibition at 5 min, 10 µM: 9%
CYP2D6
  inhibition at 10 min, 10 µM: -2.5%
